Values of other authors in patent US20020032188A1, “Compositions and methods for treatment of anal fissure” (priority 2000, published 2002).

Conditions: topical ISDN

## O=[N+]([O-])O[C@H]1CO[C@H]2[C@@H]1OC[C@H]2O[N+](=O)[O-] [ISDN, isosorbide dinitrate]
  treatment of chronic anal fissure, result reported: effective treatment for chronic anal fissure
